Where two headings read alike, the source gives them in different places.
Columns and labels:
[1] = target: T1, ROCK2 (Homo sapiens, UniProt O75116); test: ROCK2 kinase binding affinity, DiscoverX KINOMEscan KdELECT; details: for ROCK2 Selectivity: selectivity for ROCK2 over ROCK1 from Kd
T1 construct: T7 phage fusion (kinase-tagged phage) or DNA tag for qPCR detection
Description: (§1) 1. ROCK1 and ROCK2 kinase assays: The ROCK1 and ROCK2 kinase binding affinities of compounds in this disclosure were determined by DiscoverX's KINOMEscan™ KdELECT technology (https://www.discoverx.com/kinomescan-elect-kinase-screening-and-profiling-services): Kinase-tagged T7 phage strains were prepared in an E. coli host derived from the BL21 strain. E. coli were grown to log-phase and infected with T7 phage and incubated with shaking at 32° C. until lysis. The lysates were centrifuged and filtered to remove cell debris. The remaining kinases were produced in HEK-293 cells and subsequently tagged with DNA for qPCR detection. […] The liganded beads were blocked with excess biotin and washed with blocking buffer (SeaBlock (Pierce), 1% BSA, 0.05% Tween 20, 1 mM DTT) to remove unbound ligand and to reduce nonspecific binding. […] Kds were determined using an 11-point 3-fold compound dilution series with three DMSO control points. […] The compounds were then diluted directly into the assays such that the final concentration of DMSO was 0.9%. All reactions performed in polypropylene 384-well plate. Each was a final volume of 0.02 ml. […] The kinase concentration in the eluates was measured by qPCR.

[2] = target: T2, ROCK1 (Homo sapiens, UniProt Q13464); test: ROCK1 kinase binding affinity, DiscoverX KINOMEscan KdELECT; details: 11-point 3-fold dilution
T2 construct: T7 phage fusion (kinase-tagged phage) or DNA tag for qPCR detection
T2 sequence (Q13464 whole entry, the tested form may be a part): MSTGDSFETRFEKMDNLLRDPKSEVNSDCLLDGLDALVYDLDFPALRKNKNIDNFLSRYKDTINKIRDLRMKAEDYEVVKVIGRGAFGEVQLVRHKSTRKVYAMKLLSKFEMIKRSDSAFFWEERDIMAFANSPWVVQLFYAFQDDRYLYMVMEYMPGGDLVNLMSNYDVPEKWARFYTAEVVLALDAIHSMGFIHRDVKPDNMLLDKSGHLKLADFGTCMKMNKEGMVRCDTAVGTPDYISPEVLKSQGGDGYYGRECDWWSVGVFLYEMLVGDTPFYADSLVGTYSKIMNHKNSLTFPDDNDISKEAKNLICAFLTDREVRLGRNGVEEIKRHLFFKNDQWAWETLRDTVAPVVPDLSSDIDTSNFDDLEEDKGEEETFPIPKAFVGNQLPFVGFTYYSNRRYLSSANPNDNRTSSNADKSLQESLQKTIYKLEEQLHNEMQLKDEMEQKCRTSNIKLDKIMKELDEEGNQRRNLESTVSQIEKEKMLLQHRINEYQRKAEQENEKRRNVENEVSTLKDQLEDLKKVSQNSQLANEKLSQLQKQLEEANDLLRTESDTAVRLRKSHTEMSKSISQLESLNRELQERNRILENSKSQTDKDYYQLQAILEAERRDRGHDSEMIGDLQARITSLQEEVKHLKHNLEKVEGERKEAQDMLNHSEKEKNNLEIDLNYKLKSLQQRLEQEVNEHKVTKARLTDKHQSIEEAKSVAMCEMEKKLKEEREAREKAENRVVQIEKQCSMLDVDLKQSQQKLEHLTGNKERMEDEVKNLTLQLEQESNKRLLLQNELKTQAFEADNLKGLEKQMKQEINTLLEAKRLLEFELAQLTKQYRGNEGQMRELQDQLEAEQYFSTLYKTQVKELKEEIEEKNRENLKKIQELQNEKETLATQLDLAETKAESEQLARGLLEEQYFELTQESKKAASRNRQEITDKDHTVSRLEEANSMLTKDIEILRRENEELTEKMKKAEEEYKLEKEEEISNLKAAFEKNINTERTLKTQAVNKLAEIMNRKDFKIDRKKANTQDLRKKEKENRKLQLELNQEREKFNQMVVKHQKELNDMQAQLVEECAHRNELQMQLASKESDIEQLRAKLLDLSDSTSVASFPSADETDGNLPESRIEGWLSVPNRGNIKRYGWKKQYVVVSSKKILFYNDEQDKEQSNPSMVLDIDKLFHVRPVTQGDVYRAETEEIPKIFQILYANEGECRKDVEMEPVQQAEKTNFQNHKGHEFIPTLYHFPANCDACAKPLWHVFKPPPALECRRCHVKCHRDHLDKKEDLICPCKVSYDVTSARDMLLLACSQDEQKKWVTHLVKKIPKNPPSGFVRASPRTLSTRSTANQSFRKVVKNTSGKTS
Description: as §1

[3] = KINOMEscan KdELECT, 11-point 3-fold dilution, read-out: Kd (μM) ROCK2

T1 sequence (O75116 whole entry, the tested form may be a part): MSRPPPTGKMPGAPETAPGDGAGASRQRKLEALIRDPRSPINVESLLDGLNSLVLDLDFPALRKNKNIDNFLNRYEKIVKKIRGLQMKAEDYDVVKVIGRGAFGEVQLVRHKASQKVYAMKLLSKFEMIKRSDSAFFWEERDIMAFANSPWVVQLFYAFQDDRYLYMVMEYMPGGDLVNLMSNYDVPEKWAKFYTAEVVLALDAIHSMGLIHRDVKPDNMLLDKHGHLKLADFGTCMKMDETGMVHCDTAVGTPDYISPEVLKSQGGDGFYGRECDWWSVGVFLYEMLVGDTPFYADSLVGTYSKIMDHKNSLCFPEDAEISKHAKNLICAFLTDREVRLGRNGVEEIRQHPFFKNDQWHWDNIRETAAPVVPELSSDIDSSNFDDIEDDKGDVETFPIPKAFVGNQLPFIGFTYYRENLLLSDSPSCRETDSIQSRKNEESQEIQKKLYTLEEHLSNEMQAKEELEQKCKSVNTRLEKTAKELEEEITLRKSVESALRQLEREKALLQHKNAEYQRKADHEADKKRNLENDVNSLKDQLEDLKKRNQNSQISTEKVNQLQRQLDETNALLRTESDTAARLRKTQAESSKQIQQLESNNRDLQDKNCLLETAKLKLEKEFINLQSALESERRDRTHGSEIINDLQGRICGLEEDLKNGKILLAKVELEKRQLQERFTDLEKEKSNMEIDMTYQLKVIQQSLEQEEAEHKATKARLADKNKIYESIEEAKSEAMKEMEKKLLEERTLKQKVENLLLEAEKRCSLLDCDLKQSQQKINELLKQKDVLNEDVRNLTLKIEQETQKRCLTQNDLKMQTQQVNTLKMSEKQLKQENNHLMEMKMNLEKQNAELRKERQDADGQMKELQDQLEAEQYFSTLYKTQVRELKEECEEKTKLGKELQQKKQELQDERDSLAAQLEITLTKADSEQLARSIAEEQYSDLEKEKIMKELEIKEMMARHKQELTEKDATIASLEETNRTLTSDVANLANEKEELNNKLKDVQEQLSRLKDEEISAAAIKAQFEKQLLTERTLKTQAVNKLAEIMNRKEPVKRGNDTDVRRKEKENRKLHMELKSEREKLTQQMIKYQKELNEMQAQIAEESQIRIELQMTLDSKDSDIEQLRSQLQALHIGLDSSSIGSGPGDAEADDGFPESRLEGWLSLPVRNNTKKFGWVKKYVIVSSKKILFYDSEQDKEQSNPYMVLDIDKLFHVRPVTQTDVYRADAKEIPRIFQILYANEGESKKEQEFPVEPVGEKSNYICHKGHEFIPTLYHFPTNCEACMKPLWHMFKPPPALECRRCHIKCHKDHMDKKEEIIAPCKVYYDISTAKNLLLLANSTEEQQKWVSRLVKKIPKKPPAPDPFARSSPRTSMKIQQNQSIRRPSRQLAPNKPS

| Kd [1, 3] | Kd [2] | SMILES | ROCK2 Selectivity [1] | Kd [1] |
| --- | --- | --- | --- | --- |
| < 0.01 µM | 0.1 to 0.99 µM | CC1(C)CCC(CNc2nccc(-c3nccc(C#Cc4ccc5[nH]ncc5c4)n3)n2)O1 (stereo not drawn) [Ex. 68, 4-((1H-Indazol-5-yl)ethynyl)-N-((5,5-dimethyltetrahydrofuran-2-yl)methyl)-[2,4′-bipyrimidin]-2′-amine] | *** (151 to 500-fold selectivity for ROCK2) | – |
| 0.01 to 0.099 µM | 0.1 to 0.99 µM | C(#Cc1ccnc(-c2ccnc(NCc3ccco3)n2)n1)c1ccc2[nH]ncc2c1 [Ex. 40, 4-((1H-Indazol-5-yl)ethynyl)-N-(furan-2-ylmethyl)-[2,4′-bipyrimidin]-2′-amine] | * (<50-fold selectivity for ROCK2) | – |
| < 0.01 µM | 0.1 to 0.99 µM | OC[C@H]1CC[C@@H](CNc2nccc(-c3nccc(C#Cc4ccc5[nH]ncc5c4)n3)n2)O1 [Ex. 51, ((2R,5S)-5-(((4-((1H-Indazol-5-yl)ethynyl)-[2,4′-bipyrimidin]-2′-yl)amino)methyl)tetrahydrofuran-2-yl)methanol] | *** (151 to 500-fold selectivity for ROCK2) | – |
| < 0.01 µM | 1 to 9.9 µM | C(#Cc1ccnc(-c2ccnc(NC[C@H]3CCOC3)n2)n1)c1ccc2[nH]ncc2c1 [Ex. 69, (R)-4-((1H-Indazol-5-yl)ethynyl)-N-((tetrahydrofuran-3-yl)methyl)-[2,4′-bipyrimidin]-2′-amine] | *** (151 to 500-fold selectivity for ROCK2) | – |
| 0.01 to 0.099 µM | 1 to 9.9 µM | CC(Nc1nccc(-c2nccc(C#Cc3ccc4[nH]ncc4c3)n2)n1)C1CCCO1 (stereo not drawn) [Ex. 67, 4-((1H-Indazol-5-yl)ethynyl)-N-(1-(tetrahydrofuran-2-yl)ethyl)-[2,4′-bipyrimidin]-2′-amine] | * (<50-fold selectivity for ROCK2) | – |
| 0.1 to 0.99 µM | 1 to 9.9 µM | C(#Cc1ccnc(-c2ccnc(NCC3CCCCN3)n2)n1)c1ccc2[nH]ncc2c1 (stereo not drawn) [Ex. 9, 4-((1H-Indazol-5-yl)ethynyl)-N-(piperidin-2-ylmethyl)-[2,4′-bipyrimidin]-2′-amine] | * (<50-fold selectivity for ROCK2) | – |
| < 0.01 µM | 0.1 to 0.99 µM | O=C(CNc1nccc(-c2nccc(C#Cc3ccc4[nH]ncc4c3)n2)n1)N1CC[C@H](O)C1 [Ex. 1, (S)-2-((4-((1H-Indazol-5-yl)ethynyl)-[2,4′-bipyrimidin]-2′-yl)amino)-1-(3-hydroxypyrrolidin-1-yl)ethanone] | ** (50 to 150-fold selectivity for ROCK2) | – |
| < 0.01 µM | 0.1 to 0.99 µM | COC(=O)[C@H]1CC[C@H](Nc2nccc(-c3nccc(C#Cc4ccc5[nH]ncc5c4)n3)n2)CC1 [Ex. 86, (1r,4r)-Methyl 4-((4-((1H-indazol-5-yl)ethynyl)-[2,4′-bipyrimidin]-2′-yl)amino)cyclohexanecarboxylate] | *** (151 to 500-fold selectivity for ROCK2) | – |
| < 0.01 µM | 1 to 9.9 µM | O=C(CNc1nccc(-c2nccc(C#Cc3ccc4[nH]ncc4c3)n2)n1)N1CCOCC1 [Ex. 41, 2-((4-((1H-Indazol-5-yl)ethynyl)-[2,4′-bipyrimidin]-2′-yl)amino)-1-morpholinoethanone] | *** (151 to 500-fold selectivity for ROCK2) | – |

Continued, molecule first:

| SMILES | Kd [1, 3] | Kd [2] | ROCK2 Selectivity [1] | Kd [1] |
| --- | --- | --- | --- | --- |
| Fc1ccc(CNc2nccc(-c3nccc(C#Cc4cc(F)c5[nH]ncc5c4)n3)n2)nc1 [Ex. 36, 4-((7-Fluoro-1H-indazol-5-yl)ethynyl)-N-((5-fluoropyridin-2-yl)methyl)-[2,4′-bipyrimidin]-2′-amine] | 0.01 to 0.099 µM | 1 to 9.9 µM | ** (50 to 150-fold selectivity for ROCK2) | – |
| C[C@H](O)CNc1nccc(-c2nccc(C#Cc3ccc4[nH]ncc4c3)n2)n1 [Ex. 80, (S)-1-((4-((1H-Indazol-5-yl)ethynyl)-[2,4′-bipyrimidin]-2′-yl)amino)propan-2-ol] | – | 1 to 9.9 µM | ** (50 to 150-fold selectivity for ROCK2) | 0.1 to 0.99 µM |
| Fc1cncc(CNc2nccc(-c3nccc(C#Cc4ccc5[nH]ncc5c4)n3)n2)c1 [Ex. 29, 4-((1H-Indazol-5-yl)ethynyl)-N-((5-fluoropyridin-3-yl)methyl)-[2,4′-bipyrimidin]-2′-amine] | 0.1 to 0.99 µM | 1 to 9.9 µM | * (<50-fold selectivity for ROCK2) | – |
| CC(Nc1nccc(-c2nccc(C#Cc3ccc4[nH]ncc4c3)n2)n1)c1ccc(F)cn1 (stereo not drawn) [Ex. 28, 4-((1H-Indazol-5-yl)ethynyl)-N-(1-(5-fluoropyridin-2-yl)ethyl)-[2,4′-bipyrimidin]-2′-amine] | 0.01 to 0.099 µM | 1 to 9.9 µM | * (<50-fold selectivity for ROCK2) | – |
| FC(F)(F)c1ccc(CNc2nccc(-c3nccc(C#Cc4ccc5[nH]ncc5c4)n3)n2)nc1 [Ex. 48, 4-((1H-Indazol-5-yl)ethynyl)-N-((5-(trifluoromethyl)pyridin-2-yl)methyl)-[2,4′-bipyrimidin]-2′-amine] | < 0.01 µM | 0.1 to 0.99 µM | ** (50 to 150-fold selectivity for ROCK2) | – |
| Fc1n[nH]c2ccc(C#Cc3ccnc(-c4ccnc(NCC5CCCO5)n4)n3)cc12 (stereo not drawn) [Ex. 50, 4-((3-Fluoro-1H-indazol-5-yl)ethynyl)-N-((tetrahydrofuran-2-yl)methyl)-[2,4′-bipyrimidin]-2′-amine] | < 0.01 µM | 1 to 9.9 µM | *** (151 to 500-fold selectivity for ROCK2) | – |
| CN(C)C(=O)CNc1nccc(-c2nccc(C#Cc3ccc4[nH]nc(F)c4c3)n2)n1 [Ex. 46, 2-((4-((3-Fluoro-1H-indazol-5-yl)ethynyl)-[2,4′-bipyrimidin]-2′-yl)amino)-N,N-dimethylacetamide] | 0.01 to 0.099 µM | 1 to 9.9 µM | ** (50 to 150-fold selectivity for ROCK2) | – |
| Fc1cc(F)c(F)c(CNc2nccc(-c3nccc(C#Cc4ccc5[nH]ncc5c4)n3)n2)c1 [Ex. 37, 4-((1H-Indazol-5-yl)ethynyl)-N-(2,3,5-trifluorobenzyl)-[2,4′-bipyrimidin]-2′-amine] | 0.01 to 0.099 µM | 1 to 9.9 µM | *** (151 to 500-fold selectivity for ROCK2) | – |
| O=C(CNc1nccc(-c2nccc(C#Cc3ccc4[nH]nc(F)c4c3)n2)n1)N1CCOCC1 [Ex. 77, 2-((4-((3-Fluoro-1H-indazol-5-yl)ethynyl)-[2,4′-bipyrimidin]-2′-yl)amino)-1-morpholinoethanone] | 0.01 to 0.099 µM | 10 to 100 µM | *** (151 to 500-fold selectivity for ROCK2) | – |
| Fc1ncccc1CNc1nccc(-c2nccc(C#Cc3ccc4[nH]ncc4c3)n2)n1 [Ex. 6, 4-((1H-Indazol-5-yl)ethynyl)-N-((2-fluoropyridin-3-yl)methyl)-[2,4′-bipyrimidin]-2′-amine] | < 0.01 µM | 0.01 to 0.099 µM | * (<50-fold selectivity for ROCK2) | – |
| Clc1ccc(CNc2nccc(-c3nccc(C#Cc4ccc5[nH]ncc5c4)n3)n2)nc1 [Ex. 16, 4-((1H-Indazol-5-yl)ethynyl)-N-((5-chloropyridin-2-yl)methyl)-[2,4′-bipyrimidin]-2′-amine] | < 0.01 µM | 0.1 to 0.99 µM | * (<50-fold selectivity for ROCK2) | – |
| Fc1ccc(CCNc2nccc(-c3nccc(C#Cc4ccc5[nH]ncc5c4)n3)n2)nc1 [Ex. 39, 4-((1H-Indazol-5-yl)ethynyl)-N-(2-(5-fluoropyridin-2-yl)ethyl)-[2,4′-bipyrimidin]-2′-amine] | 0.01 to 0.099 µM | 1 to 9.9 µM | ** (50 to 150-fold selectivity for ROCK2) | – |
| Fc1ccc(CNc2nccc(-c3nccc(C#Cc4ccc5[nH]ncc5c4)n3)n2)nc1 [Ex. 3, 4-((1H-Indazol-5-yl)ethynyl)-N-((5-fluoropyridin-2-yl)methyl)-[2,4′-bipyrimidin]-2′-amine] | < 0.01 µM | 1 to 9.9 µM | *** (151 to 500-fold selectivity for ROCK2) | – |
| CN(Cc1ccc(F)cn1)c1nccc(-c2nccc(C#Cc3ccc4[nH]ncc4c3)n2)n1 [Ex. 30, 4-((1H-Indazol-5-yl)ethynyl)-N-((5-fluoropyridin-2-yl)methyl)-N-methyl-[2,4′-bipyrimidin]-2′-amine] | 0.1 to 0.99 µM | 1 to 9.9 µM | * (<50-fold selectivity for ROCK2) | – |
| [2H]C([2H])(Nc1nccc(-c2nccc(C#Cc3ccc4[nH]ncc4c3)n2)n1)c1ccccn1 [Ex. 66, 4-((1H-Indazol-5-yl)ethynyl)-N-(pyridin-2-ylmethyl-d2)-[2,4′-bipyrimidin]-2′-amine] | < 0.01 µM | 0.1 to 0.99 µM | ** (50 to 150-fold selectivity for ROCK2) | – |
| Fc1cccc(F)c1CNc1nccc(-c2nccc(C#Cc3ccc4[nH]ncc4c3)n2)n1 [Ex. 27, 4-((1H-Indazol-5-yl)ethynyl)-N-(2,6-difluorobenzyl)-[2,4′-bipyrimidin]-2′-amine] | 0.1 to 0.99 µM | 10 to 100 µM | ** (50 to 150-fold selectivity for ROCK2) | – |
| C(#Cc1ccnc(-c2ccnc(NCc3nc4ccccc4[nH]3)n2)n1)c1ccc2[nH]ncc2c1 [Ex. 57, N-((1H-Benzo[d]imidazol-2-yl)methyl)-4-((1H-indazol-5-yl)ethynyl)-[2,4′-bipyrimidin]-2′-amine] | 0.01 to 0.099 µM | 10 to 100 µM | **** (>500-fold selectivity for ROCK2) | – |

— patent publication US20230295131A1, “INHIBITORS OF RHO-ASSOCIATED COILED-COIL KINASE” (Angion Biomedica Corp., priority 2020, published 2023)
